Measurements as given in PubChem BioAssay (NCI).
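Following 48 hours of exposure in 96-well plates, responses at five concentrations were used to interpolate endpoints linearly. TGI denotes the concentration required for complete inhibition of growth.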

Tests used:
Assay in all cases: NCI anticancer screen, dose series, 48 h
[1] = system: 786-0 renal
[2] = system: CCRF-CEM leukemia
[3] = system: DU-145 prostate
[4] = system: HL-60(TB) leukemia
[5] = system: MCF7 breast
[6] = system: MDA-N
[7] = system: OVCAR-8 ovarian
[8] = system: SK-MEL-2 melanoma
[9] = system: SNB-75 CNS
[10] = system: T-47D breast
[11] = system: COLO 205 colon

Row | SMILES | TGI [1] | TGI [2] | TGI [3] | TGI [4] | TGI [5] | TGI [6] | TGI [7] | TGI [8] | TGI [9] | TGI [10] | TGI [11]
1 | COc1ccc(Cn2nc(OCc3ccccc3)c3cc([N+](=O)[O-])ccc32)cc1 | > 100 µM | > 100 µM | > 100 µM | > 100 µM | > 100 µM | > 100 µM | > 100 µM | > 100 µM | > 100 µM | > 100 µM | –
2 | CCOC(=O)CCC1(C(=O)O[C@@H]2C[C@H](C)CC[C@H]2C(C)C)CCCCC1=O (some centres undefined) | > 100 µM | > 100 µM | > 100 µM | 57.6 µM | > 100 µM | > 100 µM | > 100 µM | > 100 µM | > 100 µM | > 100 µM | > 100 µM
3 | O=C(OCC(OC(=O)c1ccccc1)C1CC(C(O)C2CCCCC2)C(=O)O1)c1ccccc1 (centres undefined) | > 100 µM | 52.8 µM | > 100 µM | 37 µM | 96.7 µM | > 100 µM | > 100 µM | > 100 µM | > 100 µM | > 100 µM | > 100 µM
4 | C=C1CC2C[C@H](OS(=O)(=O)c3ccc(C)cc3)C(C1)N2C (some centres undefined) | > 100 µM | > 100 µM | > 100 µM | > 100 µM | > 100 µM | > 100 µM | > 100 µM | > 100 µM | > 100 µM | > 100 µM | > 100 µM
5 | N#Cc1nc(-c2ccccn2)c(-c2ccccn2)nc1C#N | 6.28 µM | > 38.4 µM | 12.7 µM | > 29.2 µM | 28 µM | > 100 µM | 15.3 µM | 10.6 µM | 22.9 µM | 9.5 µM | 10.6 µM
6 | COc1ccc(C2CCc3c(cnc4nc(N)nc(N)c34)C2)cc1 (centres undefined) | 26.8 µM | – | > 100 µM | > 100 µM | 45.1 µM | > 100 µM | > 100 µM | > 100 µM | 26.7 µM | 95.3 µM | > 100 µM
7 | Cc1cccc2c1C(=O)/C(=C/c1ccccc1C(=O)O)C2 | > 100 µM | > 100 µM | > 100 µM | > 100 µM | > 100 µM | > 100 µM | > 100 µM | > 100 µM | > 100 µM | > 100 µM | > 100 µM
8 | NC(=O)c1ccc(S(=O)(=NS(=O)(=O)c2ccccc2)c2ccc(C(N)=O)cc2)cc1 | > 100 µM | > 100 µM | > 100 µM | > 100 µM | > 100 µM | > 100 µM | > 100 µM | > 100 µM | > 100 µM | > 100 µM | > 100 µM
9 | COc1nc2ncc([C@@H](O)[C@H](O)CO)nc2c(=O)[nH]1 | > 100 µM | > 100 µM | > 100 µM | > 100 µM | > 100 µM | > 100 µM | > 100 µM | > 100 µM | > 100 µM | > 100 µM | > 100 µM
10 | COc1ccc2c(-c3csc(-c4c[nH]c5ccccc45)n3)c[nH]c2c1 | 18.2 µM | > 63.3 µM | > 44.8 µM | > 100 µM | > 100 µM | > 100 µM | > 60.6 µM | > 86.2 µM | 91.7 µM | > 100 µM | > 57.7 µM
11 | CC1C/C(=C\c2ccc(O)c(O)c2)C(=O)/C(=C/c2ccc(O)c(O)c2)C1 (centres undefined) | – | 7.2 µM | 20.8 µM | 8.42 µM | 14.8 µM | 15.7 µM | 48.7 µM | 34.8 µM | 16.7 µM | 27.8 µM | 32.2 µM
12 | COc1ccc(C2=C(N)c3cc(OC)ccc3C2=O)cc1 | > 100 µM | – | > 100 µM | > 100 µM | > 100 µM | > 100 µM | > 100 µM | > 100 µM | > 100 µM | > 100 µM | > 100 µM
13 | Clc1ccc(C2=NNC(c3cccc(Cl)c3)C2)cc1 (centres undefined) | 92.7 µM | 96.8 µM | > 100 µM | > 100 µM | > 100 µM | 59.6 µM | – | 5.55 µM | 96.5 µM | > 100 µM | 29.3 µM
14 | CCOC(=O)C1=C(C)N(c2ccc(Cl)cc2)C2(O)C=CC(=O)C3C(=O)N(c4ccccc4)C(=O)C132 (centres undefined) | 3.09 µM | – | 4.65 µM | 6.21 µM | 4.06 µM | 8.92 µM | 6.32 µM | 3.53 µM | 3.25 µM | 6.55 µM | 3.26 µM
15 | O=C1CCc2c(sc3ncnc(Nc4cccc(Br)c4)c23)C1 | 19 µM | 4.38 µM | 17.3 µM | 7.56 µM | 22.3 µM | 7.69 µM | 21.3 µM | 23.8 µM | 12.5 µM | 6.17 µM | 20.8 µM
